According to paper PMC8645336, “Benchmarking a highly selective USP30 inhibitor for enhancement of mitophagy and pexophagy” (Life Science Alliance, 2021):

How the values were obtained:
Test in all cases: biochemical
Design in all cases: Ubiquigent DUB profiler selectivity panel, remaining enzyme activity as % of control
Details in all cases: read-out: % of control remaining
[1] = target: T1, OTU1 (Homo sapiens, UniProt Q5VVQ6)
T1 construct: gene YOD1
T1 sequence (Q5VVQ6 1-348): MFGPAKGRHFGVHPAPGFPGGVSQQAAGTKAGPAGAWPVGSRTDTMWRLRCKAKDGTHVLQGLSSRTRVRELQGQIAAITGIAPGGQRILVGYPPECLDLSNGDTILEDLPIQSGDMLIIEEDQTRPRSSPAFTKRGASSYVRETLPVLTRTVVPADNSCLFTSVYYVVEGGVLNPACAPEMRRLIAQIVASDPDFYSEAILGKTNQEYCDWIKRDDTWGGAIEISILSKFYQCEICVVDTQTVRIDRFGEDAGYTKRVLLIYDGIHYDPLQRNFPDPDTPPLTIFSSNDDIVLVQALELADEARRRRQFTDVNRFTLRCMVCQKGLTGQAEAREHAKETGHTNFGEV
Outline: (§1)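 In YFP-PRKN-overexpressing hTERT-RPE1 cells, 1 h antimycin A plus oligomycin A (1 μM each) with CMPD-39, then Western blot of TOMM20 ubiquitylation. Target engagement: 2 h compound, then 10 min HA-Ub-PA at 37°C, read as USP30 shift. DUB panel (>40 enzymes) screened at 1-100 μM.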

[2] = target: T2, UCHL5 (Homo sapiens, UniProt Q9Y5K5)
T2 sequence (Q9Y5K5 1-329): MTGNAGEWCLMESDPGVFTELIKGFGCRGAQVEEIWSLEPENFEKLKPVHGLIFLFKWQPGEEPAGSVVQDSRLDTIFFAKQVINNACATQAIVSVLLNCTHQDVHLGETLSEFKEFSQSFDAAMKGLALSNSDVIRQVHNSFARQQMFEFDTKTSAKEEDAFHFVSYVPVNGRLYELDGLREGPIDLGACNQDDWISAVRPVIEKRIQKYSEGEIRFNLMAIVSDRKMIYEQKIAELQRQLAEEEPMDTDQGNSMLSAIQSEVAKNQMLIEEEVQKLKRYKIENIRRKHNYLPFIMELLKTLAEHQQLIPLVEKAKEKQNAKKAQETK
Outline: as §1

[3] = target: T3, USP5 (Homo sapiens, UniProt P45974)
T3 sequence (P45974 1-858): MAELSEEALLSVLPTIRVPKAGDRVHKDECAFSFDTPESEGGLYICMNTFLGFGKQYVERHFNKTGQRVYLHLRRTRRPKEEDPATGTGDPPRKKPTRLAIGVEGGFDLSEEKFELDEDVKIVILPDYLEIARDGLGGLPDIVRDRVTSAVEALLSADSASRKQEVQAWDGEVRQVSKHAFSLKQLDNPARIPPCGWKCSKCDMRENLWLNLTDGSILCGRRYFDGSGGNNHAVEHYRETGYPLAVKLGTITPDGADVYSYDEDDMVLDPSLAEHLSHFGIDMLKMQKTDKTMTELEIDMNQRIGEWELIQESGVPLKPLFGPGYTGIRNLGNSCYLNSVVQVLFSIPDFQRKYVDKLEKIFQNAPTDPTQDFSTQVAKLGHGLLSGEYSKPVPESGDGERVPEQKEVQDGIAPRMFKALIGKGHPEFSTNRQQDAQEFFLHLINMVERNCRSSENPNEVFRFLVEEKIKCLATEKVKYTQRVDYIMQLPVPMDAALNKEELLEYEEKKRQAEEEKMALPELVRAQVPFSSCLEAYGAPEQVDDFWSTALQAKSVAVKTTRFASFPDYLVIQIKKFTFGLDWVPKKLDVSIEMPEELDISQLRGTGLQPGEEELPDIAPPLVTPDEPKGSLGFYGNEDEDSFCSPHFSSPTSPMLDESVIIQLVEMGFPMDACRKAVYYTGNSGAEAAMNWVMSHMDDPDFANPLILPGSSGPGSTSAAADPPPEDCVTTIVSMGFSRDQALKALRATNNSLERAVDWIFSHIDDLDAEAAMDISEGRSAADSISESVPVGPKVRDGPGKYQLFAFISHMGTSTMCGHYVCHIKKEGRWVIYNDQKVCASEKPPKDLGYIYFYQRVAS
Outline: as §1

[4] = target: USP7 (Homo sapiens, UniProt Q93009)
Outline: as §1

Chain of USP7 (Q93009 whole entry): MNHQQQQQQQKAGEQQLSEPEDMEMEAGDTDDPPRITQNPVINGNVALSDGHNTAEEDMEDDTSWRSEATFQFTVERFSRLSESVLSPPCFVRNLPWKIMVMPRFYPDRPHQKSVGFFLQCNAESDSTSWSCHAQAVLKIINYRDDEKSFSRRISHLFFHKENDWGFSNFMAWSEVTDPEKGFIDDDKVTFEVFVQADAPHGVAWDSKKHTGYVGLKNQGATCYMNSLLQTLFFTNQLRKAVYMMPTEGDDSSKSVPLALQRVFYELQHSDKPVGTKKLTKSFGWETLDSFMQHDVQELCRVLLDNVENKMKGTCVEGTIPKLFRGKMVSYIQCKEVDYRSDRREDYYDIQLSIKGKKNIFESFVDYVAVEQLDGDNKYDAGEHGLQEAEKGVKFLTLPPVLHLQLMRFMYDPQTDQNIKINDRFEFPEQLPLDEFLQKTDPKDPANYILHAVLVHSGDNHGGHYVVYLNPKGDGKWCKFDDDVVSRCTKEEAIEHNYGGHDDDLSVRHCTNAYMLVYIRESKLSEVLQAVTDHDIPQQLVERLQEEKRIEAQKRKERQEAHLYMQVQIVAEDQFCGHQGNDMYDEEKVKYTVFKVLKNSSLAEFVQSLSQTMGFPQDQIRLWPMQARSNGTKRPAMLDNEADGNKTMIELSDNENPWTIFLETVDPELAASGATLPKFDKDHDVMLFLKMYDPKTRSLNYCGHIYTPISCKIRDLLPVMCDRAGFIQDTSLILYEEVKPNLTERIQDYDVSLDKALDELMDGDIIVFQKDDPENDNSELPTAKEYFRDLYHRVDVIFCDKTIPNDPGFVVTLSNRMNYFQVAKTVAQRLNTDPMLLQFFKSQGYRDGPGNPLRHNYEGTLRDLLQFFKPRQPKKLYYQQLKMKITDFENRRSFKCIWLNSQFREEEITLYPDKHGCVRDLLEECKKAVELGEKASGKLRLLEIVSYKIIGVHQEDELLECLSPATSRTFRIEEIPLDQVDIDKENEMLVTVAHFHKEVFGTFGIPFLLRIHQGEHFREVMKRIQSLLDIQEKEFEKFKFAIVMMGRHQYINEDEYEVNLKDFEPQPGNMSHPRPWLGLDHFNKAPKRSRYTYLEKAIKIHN

Question: Which remaining activity at 1 µM [1] does the source give for `CC(C)(C)NS(=O)(=O)c1ccc(NC(=O)[C@H](Cc2ccccc2)NC(=O)c2ccc(F)cc2)cc1` [compound 39, CMPD-39] here?
Answer: Its remaining activity at 1 µM is 105%.

Question: And the remaining activity at 10 µM [1]?
Answer: The remaining activity at 10 µM was 97.8%.

Question: And the remaining activity at 100 µM [1]?
Answer: Its remaining activity at 100 µM is 101%.

Question: And the remaining activity at 1 µM [2]?
Answer: Its remaining activity at 1 µM is 107%.

Question: And the remaining activity at 10 µM [2]?
Answer: The remaining activity at 10 µM was 98%.

Question: And the remaining activity at 100 µM [2]?
Answer: The remaining activity at 100 µM was 101%.

Question: What about the remaining activity at 1 µM [3] of the same compound?
Answer: Its remaining activity at 1 µM is 104%.

Question: And the remaining activity at 10 µM [3]?
Answer: The remaining activity at 10 µM was 101%.

Question: And the remaining activity at 100 µM [3]?
Answer: Its remaining activity at 100 µM is 106%.

Question: What about the remaining activity at 1 µM [4] of the same compound?
Answer: The remaining activity at 1 µM was 106%.

Question: What about the remaining activity at 10 µM [4] of the same compound?
Answer: Its remaining activity at 10 µM is 98.4%.

Question: What about the remaining activity at 100 µM [4] of the same compound?
Answer: Its remaining activity at 100 µM is 94.1%.
